Common to all, as to assay type: cell-based, human
The test system of one data set is BUB1B. Briefly: Western blot of BUB1B in Caki-1 cells treated with TG-101209 derivatives. The settings on record: for expression levels of BUB1B (summary statement): concentration not given; for expression levels of BUB1B (Western blot): Caki-1 cells, 5 μM of target drug, 1 day (FIG. 41, 56). As for the experimental part: (§1) Cell culture 2: Caki-1 was purchased from CLS Cell Lines Service (Germany). The cells were maintained in McCoy's 5A (modified) medium (16600082, Thermo Fisher Scientific, USA) and supplemented with 10% fetal bovine serum (FBS, F7524, Sigma-Aldrich), 1% Penicillin/Streptomycin (P4333, Sigma-Aldrich).
The target drugs developed as alternatives to TG-101209, were dissolved in 0.1% DMSO (41639, Sigma-Aldrich). Caki-1 cells from cell culture 2 were seeded in a 6-well plate at 3×10^5 cells per well. […]
The cells were washed with PBS solution and then lysed with CelLytic M (C2978, Sigma-Aldrich) lysis buffer containing protease inhibitors (11836170001, Roche). The cell lysates were centrifuged at 12 000 rpm for 10 min and supernatants were collected. Protein Assay Dye Reagent (5000006, Bio-Rad) was used for the determination of protein concentration. The absorbance of the proteins was measured spectrophotometrically at 595 nm by a microplate reader (Hidex Sense Beta Plus). Protein electrophoresis was performed using Mini-PROTEAN® TGX™ Precast Gels (4561086, Bio-Rad) and then the separated proteins were transferred to a Trans-Blot Turbo Mini 0.2 μm PVDF Transfer Packs membrane (1704158, Bio-Rad) by using Trans-Blot® Turbo™ Transfer System (Bio-Rad). The membrane was blocked with 5% skim milk for 30 min at 4° C. with gentle rocking. After blocking, the membrane was treated with primary antibodies: Anti-BUB1B (HPA008419, Human Protein Atlas, Sweden) and Anti-Beta actin (ab8227, Abcam) as a loading control overnight at 4° C. on a rocking platform. After the treatment of primary antibodies, the membrane was washed three times with TBS-T buffer (A09-7500-100, Medicago). Then, Goat anti-Rabbit IgG-HRP (ab205718, Abcam) was treated as the secondary antibody for 30 min at 4° C. with gentle rocking.
In general terms: Immunoblotting shows a protein as a band on a membrane.

Data set [1] has as its system Caki-1 cells. Briefly: MTT cell viability assay. The settings on record: for cell viability of treated cells (summary statement): concentration not given; for reduction in cell viability (MTT) / effect on cell viability (MTT): 1 day. As for the experimental part:
as §1
The cytotoxic effects of the TG-101209 and its alternatives on the Caki-1 cells were tested by MTT (Thiazolyl Blue Tetrazolium Bromide) method. 1.5×10^4 cells were seeded per well in a 96-well plate in 100 μL growth media. […] After the incubation period, 5 mg/ml MTT (M2128, Sigma-Aldrich) solution in PBS (10 μL) was added to each well. After 1 hour, the MTT solution and all media were removed from the wells. 100 μl of DMSO was added and mixed to dissolve the formazan crystals. Cell viability was analysed by measuring the absorbance of the dissolved formazan at a wavelength of 570 nm with a microplate reader (Hidex Sense Beta Plus).
(Formazan colour is commonly taken as a measure of viable cells.)

Data set [2] deals with Caki-1 cells. Briefly: LDH cytotoxicity assay. The note with it: 1 day; for cytotoxicity (LDH assay): Caki-1, 10 μM; for Ranking, Cytotoxicity (%): top five, LDH assay, 10 μM, rank 1 = highest. As for the experimental part:
as §1
Lactate dehydrogenase (LDH) assay was performed with LDH Assay Kit (ab65393). […] 20 μl of media was analysed with LDH Assay Kit as per manufacturer's instruction.

Entries after “also recorded” stand apart in the source; their conditions may differ. Some results are limits rather than exact numbers.

As to `Cc1ccc(Nc2ncc(C)c(Nc3ccc(N4CCN(C)CC4)cc3)n2)cc1S(N)(=O)=O` [Compound M123, 2-methyl-5-((5-methyl-4-((4-(4-methylpiperazin-1-yl)phenyl)amino)pyrimidin-2-yl)amino)benzenesulfonamide], in the data set on BUB1B, the “expression levels of BUB1B (summary statement)” value was “reduction of the expression levels of BUB1B”. For the same compound, in the data set on Caki-1 cells [1], the “cell viability of treated cells (summary statement)” value (from here on “cell viability of treated cells”) is recorded as “particularly low cell viability; also recorded: significantly reduced cell viability”.

For the compound `Cc1cn(-c2cc(Nc3ncc(C)c(Nc4cccc(S(=O)(=O)NC(C)(C)C)c4)n3)cc(C(F)(F)F)c2)cn1` [Compound M64, N-(tert-butyl)-3-((5-methyl-2-((3-(4-methyl-1H-imidazol-1-yl)-5-(trifluoromethyl)phenyl)amino)pyrimidin-4-yl)amino)benzenesulfonamide], the “expression levels of BUB1B (Western blot)” value with BUB1B is reported as “significantly lower the expression levels of BUB1B”.

`Cc1cnc(Nc2ccc(N3CCN(C)CC3)cc2)nc1Nc1cccc(S(=O)(=O)Nc2ccccc2)c1` [Compound M3, 3-((5-methyl-2-((4-(4-methylpiperazin-1-yl)phenyl)amino)pyrimidin-4-yl)amino)-N-phenylbenzenesulfonamide]: the “expression levels of BUB1B (Western blot)” value with BUB1B is “significantly lower the expression levels of BUB1B”.

As to `Cc1cnc(Nc2ccc(C(=O)Nc3ccc(N4CCN(C)CC4)cc3)cc2)nc1Nc1ccc(N2CCN(C)CC2)cc1` [ME3, 4-((5-methyl-4-((4-(4-methylpiperazin-1-yl)phenyl)amino)pyrimidin-2-yl)amino)-N-(4-(4-methylpiperazin-1-yl)phenyl)benzamide], the “reduction in cell viability (MTT)” value in the data set with Caki-1 cells [1] (Caki-1, 10 μM, second batch) is on record as “the greatest”. Further, in the data set with Caki-1 cells [1], the “cell viability of treated cells” value is “particularly low cell viability; also recorded: significantly reduced cell viability”.

Turning to `Cc1cnc(Nc2ccc(C(=O)Nc3cccc(Br)c3)cc2)nc1Nc1cccc(S(=O)(=O)NC(C)(C)C)c1` [Compound M101B, N-(3-bromophenyl)-4-((4-((3-(N-(tert-butyl)sulfamoyl)phenyl)amino)-5-methylpyrimidin-2-yl)amino)benzamide], the “reduction in cell viability (MTT)” value in the data set with Caki-1 cells [1] (Caki-1, 5 μM, first batch) is given as “the greatest”. The “cell viability of treated cells” value in the data set on Caki-1 cells [1] is recorded as “particularly low cell viability; also recorded: significantly reduced cell viability”. The “cytotoxicity (LDH assay)” value with Caki-1 cells [2] (first batch) was “exhibited cytotoxicity”. In addition, the “Ranking, Cytotoxicity (%)” value with Caki-1 cells [2] amounted to 3.

As to `Cc1cnc(Nc2ccc(C(=O)Nc3cccc(S(=O)(=O)NC(C)(C)C)c3)cc2)nc1Nc1cccc(S(=O)(=O)NC(C)(C)C)c1` [Compound M101D, N-(3-(N-(tert-butyl)sulfamoyl)phenyl)-4-((4-((3-(N-(tert-butyl)sulfamoyl)phenyl)amino)-5-methylpyrimidin-2-yl)amino)benzamide], the “reduction in cell viability (MTT)” value with Caki-1 cells [1] (Caki-1, 5 μM, first batch) is “the greatest”. In the data set on Caki-1 cells [1] (Caki-1, 10 μM, first batch), the “effect on cell viability (MTT)” value is listed as “greatest reduction of cell viability”. Also, in the data set with Caki-1 cells [1], the “cell viability of treated cells” value is “particularly low cell viability; also recorded: significantly reduced cell viability”. Besides, the “cytotoxicity (LDH assay)” value in the data set with Caki-1 cells [2] (first batch) is listed as “highest cytotoxicity”. In addition, the “Ranking, Cytotoxicity (%)” value in the data set on Caki-1 cells [2] was 1.

For the compound `COc1cc(Nc2ncc(C)c(Nc3ccc(N4CCN(C)CC4)cc3)n2)cc(OC)c1OC` [Compound M119, 5-methyl-N4-(4-(4-methylpiperazin-1-yl)phenyl)-N2-(3,4,5-trimethoxyphenyl)pyrimidine-2,4-diamine], in the data set with BUB1B, the “expression levels of BUB1B (summary statement)” value is recorded as “reduction of the expression levels of BUB1B”. Besides, in the data set with Caki-1 cells [1], the “cell viability of treated cells” value is given as “especially low cell viability; also recorded: significantly reduced cell viability”.

`Cc1cnc(Nc2ccc(C(=O)Nc3cccc(S(=O)(=O)N4CCOCC4)c3)cc2)nc1Nc1cccc(S(=O)(=O)NC(C)(C)C)c1` [Compound M101F, 4-((4-((3-(N-(tert-butyl)sulfamoyl)phenyl)amino)-5-methylpyrimidin-2-yl)amino)-N-(3-(morpholinosulfonyl)phenyl)benzamide]: the “reduction in cell viability (MTT)” value in the data set on Caki-1 cells [1] (Caki-1, 5 μM, first batch) is listed as “the greatest”. The “cell viability of treated cells” value in the data set on Caki-1 cells [1] is given as “particularly low cell viability; also recorded: significantly reduced cell viability”. For the same compound, in the data set with Caki-1 cells [2] (first batch), the “cytotoxicity (LDH assay)” value is on record as “exhibited cytotoxicity”.

By IC50 is commonly meant the concentration needed to halve the response being measured. As for `Cc1ccc(Nc2ncc(C)c(Nc3cccc(S(=O)(=O)NC(C)(C)C)c3)n2)cc1Nc1nc(-c2cccnc2)cs1` [Compound M88, N-(tert-butyl)-3-((5-methyl-2-((4-methyl-3-((4-(pyridin-3-yl)thiazol-2-yl)amino)phenyl)amino)pyrimidin-4-yl)amino)benzenesulfonamide], in the data set on BUB1B, the “expression levels of BUB1B (Western blot)” value is recorded as “significantly lower the expression levels of BUB1B” and the “expression levels of BUB1B (summary statement)” value is “reduction of the expression levels of BUB1B”. The IC50 in the data set with Caki-1 cells [1] (Homo sapiens, 24 h, Caki-1, 1 day (FIG. 43), text: after treatment with 5 μM) was > 3000 nM. The “cell viability of treated cells” value with Caki-1 cells [1] is “especially low cell viability; also recorded: significantly reduced cell viability”.

Consider `COc1cc(NC(=O)c2ccc(Nc3ncc(C)c(Nc4cccc(S(=O)(=O)NC(C)(C)C)c4)n3)cc2)cc(OC)c1` [Compound M101A, 4-((4-((3-(N-(tert-butyl)sulfamoyl)phenyl)amino)-5-methylpyrimidin-2-yl)amino)-N-(3,5-dimethoxyphenyl)benzamide], for which, in the data set with Caki-1 cells [1] (Caki-1, 5 μM, first batch), the “reduction in cell viability (MTT)” value is listed as “the greatest”. Further, the “effect on cell viability (MTT)” value with Caki-1 cells [1] (Caki-1, 10 μM, first batch) is “most profound effect”. The “cell viability of treated cells” value in the data set with Caki-1 cells [1] is reported as “particularly low cell viability; also recorded: significantly reduced cell viability”. Also, in the data set with Caki-1 cells [2] (first batch), the “cytotoxicity (LDH assay)” value is “exhibited cytotoxicity”. Moreover, the “Ranking, Cytotoxicity (%)” value with Caki-1 cells [2] is reported as 5.

On to `COc1cc(Nc2ncc(C)c(Nc3cccc(S(=O)(=O)N4CCOCC4)c3)n2)cc(OC)c1OC` [Compound M115, 5-methyl-N4-(3-(morpholinosulfonyl)phenyl)-N2-(3,4,5-trimethoxyphenyl)pyrimidine-2,4-diamine], for which the “expression levels of BUB1B (summary statement)” value in the data set on BUB1B is listed as “reduction of the expression levels of BUB1B”. Besides, in the data set on Caki-1 cells [1], the “cell viability of treated cells” value was “especially low cell viability; also recorded: reduced cell viability”.

As for `Cc1cnc(Nc2ccc(C(=O)Nc3ccc4ncccc4c3)cc2)nc1Nc1cccc(S(=O)(=O)NC(C)(C)C)c1` [Compound M101H, 4-((4-((3-(N-(tert-butyl)sulfamoyl)phenyl)amino)-5-methylpyrimidin-2-yl)amino)-N-(quinolin-6-yl)benzamide], the “reduction in cell viability (MTT)” value in the data set with Caki-1 cells [1] (Caki-1, 5 μM, first batch) is “the greatest”. Moreover, the “cell viability of treated cells” value in the data set with Caki-1 cells [1] was “particularly low cell viability; also recorded: significantly reduced cell viability”.

Take `Cc1cnc(Nc2ccc(C(=O)Nc3ccc(OCCCN4CCOCC4)cc3)cc2)nc1Nc1cccc(S(=O)(=O)NC(C)(C)C)c1` [Compound M101G, 4-((4-((3-(N-(tert-butyl)sulfamoyl)phenyl)amino)-5-methylpyrimidin-2-yl)amino)-N-(4-(3-morpholinopropoxy)phenyl)benzamide]: in the data set on Caki-1 cells [1] (Caki-1, 5 μM, first batch), the “reduction in cell viability (MTT)” value is “the greatest”. Further, in the data set with Caki-1 cells [1], the “cell viability of treated cells” value is given as “particularly low cell viability; also recorded: significantly reduced cell viability”.

Consider `Cc1cnc(Nc2ccc(C(=O)Nc3ccc(Oc4ccc(Cl)cc4)nc3)cc2)nc1Nc1cccc(S(=O)(=O)NC(C)(C)C)c1` [Compound M101V, 4-((4-((3-(N-(tert-butyl)sulfamoyl)phenyl)amino)-5-methylpyrimidin-2-yl)amino)-N-(6-(4-chlorophenoxy)pyridin-3-yl)benzamide], for which the “cytotoxicity (LDH assay)” value in the data set with Caki-1 cells [2] (second batch) is given as “greatest cytotoxicity”.

Regarding `Cc1ccc(NC(=O)c2ccc(Nc3ncc(C)c(Nc4cccc(S(=O)(=O)NC(C)(C)C)c4)n3)cc2)cc1S(N)(=O)=O` [Compound M101Q, 4-((4-((3-(N-(tert-butyl)sulfamoyl)phenyl)amino)-5-methylpyrimidin-2-yl)amino)-N-(4-methyl-3-sulfamoylphenyl)benzamide], the “cytotoxicity (LDH assay)” value in the data set on Caki-1 cells [2] (second batch) is “greatest cytotoxicity”.

Source of the values: patent US20260248788A1, “NEW COMPOUNDS AND TREATMENT OF RENAL CELL CARCINOMA” (TRUSTLIFE THERAPEUTICS INC., priority 2023, published 2026).
